Here are results for 32 molecules from US11760751B2, “Benzo 2-azaspiro[4.4]nonane compound and use thereof” (HELIOEAST PHARMACEUTICAL CO., LTD., priority 2020, dated 2023).

Usually EC50 stands for the concentration that produces a half-maximal response. A high value points to weaker potency. A word on the Emax: it is the maximal effect, on the per cent scale that the assay sets. As a reminder, the bioavailability is dose-corrected exposure relative to a reference, in per cent.

Counter-ions that a name gives are not always drawn.

In one data set the target is T1, S1PR1 (Homo sapiens, UniProt P21453).
T1 construct: expressed in transfected cells
T1 sequence (P21453 whole entry): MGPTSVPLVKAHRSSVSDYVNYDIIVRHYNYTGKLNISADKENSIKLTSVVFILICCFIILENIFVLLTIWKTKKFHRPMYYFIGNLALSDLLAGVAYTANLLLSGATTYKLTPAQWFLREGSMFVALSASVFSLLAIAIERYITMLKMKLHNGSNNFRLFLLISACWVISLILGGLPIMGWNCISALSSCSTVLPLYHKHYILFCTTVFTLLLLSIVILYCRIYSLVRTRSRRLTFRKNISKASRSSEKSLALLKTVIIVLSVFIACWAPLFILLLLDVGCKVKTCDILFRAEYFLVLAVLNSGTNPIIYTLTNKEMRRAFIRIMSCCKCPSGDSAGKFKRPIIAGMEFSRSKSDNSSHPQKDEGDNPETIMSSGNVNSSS
In words: In vitro S1PR1 agonistic activity, PathHunter cell line, chemiluminescent detection. In kind it is cell-based. Conditions: for EC50: 90-180 min at 37° C.; for Emax: % activity vs maximum control ligand. As for the experimental part:
Test Embodiment 1: In Vitro Evaluation of the Agonistic Activity of the Compounds of the Present Disclosure on S1PR1
Experimental objective: to detect the agonistic activity of compounds on S1PR1
I. Cell Treatment • 1. A PathHunter cell line was thawed according to standard procedures; • 2. the cells were inoculated in a 20 μL 384-well microplate and incubated at 37° C. for appropriate time.
II. Agonist • 1. For agonist determination, cells were incubated with samples to be tested to induce a reaction; • 2. a storage solution to be tested was 5-fold diluted into a buffer; • 3. 5 μL of the 5-fold dilution was added to the cells and incubated at 37° C. for 90-180 minutes. The vehicle concentration was 1%.
III. Signal Detection • 1. 12.5 μL or 15 μL of PathHunter detection reagent at a volume ratio of 50% was added at a time, and then incubated at room temperature for 1 hour to generate a detection signal; • 2. the microplate was read with a PerkinElmer Envision™ instrument for chemiluminescent signal detection.
IV. Data Analysis • 1. Activity analysis of the compound was carried out by using CBIS data analysis kit (ChemInnovation, CAA); • 2. calculation formula: % activity=100%×(average test sample RLU−average vehicle RLU)/(average maximum control ligand−average vehicle RLU)

Data set [1] in a line: Pharmacokinetic evaluation in SD rats (intravenous and oral). In kind it is in vivo. Conditions: male, Sprague-Dawley, plasma, SD rat; for Cmax / bioavailability: intravenous 1.0 mg/kg; for Cmax: oral 2.0 mg/kg (route of Cmax not stated), read-out: Peak concentration Cmax; for bioavailability: oral 2.0 mg/kg, read-out: Bioavailability F; for clearance / Vd: intravenous injection 1.0 mg/kg (oral 2.0 mg/kg); for clearance: read-out: Clearance rate CL; for Vd: read-out: Tissue distribution Vdss; for AUC(0-t) / half-life: oral administration 2.0 mg/kg; for AUC(0-t): read-out: Area under the drug-time curve AUC0-last PO; for half-life: read-out: Half-life T1/2 (PO) (converted). As for the experimental part: Test Embodiment 3: Pharmacokinetic Evaluation of Compound in Rats
Experimental objective: to test the pharmacokinetics of the compound in SD rats
Sprague Dawley rat (male, 200-300 g, 7-9 weeks old, Shanghai SLAC)
A standard protocol was used to test the pharmacokinetic characteristics of rodents after intravenous injection and oral administration of the compound. In the experiment, the candidate compound was prepared into a clear solution, and administrated to rats by single intravenous injection and oral administration. The vehicle for intravenous injection was a 5:95 DMSO and 10% hydroxypropyl cyclodextrin aqueous solution, and the vehicle for oral administration was a 0.5% w/v methylcellulose and 0.2% w/v tween 80 aqueous solution. Whole blood samples within 24 hours were collected, centrifuged at 3000 g for 15 minutes, and the supernatant was separated to obtain plasma samples. 4-fold volume of acetonitrile solution containing internal standard was added thereto to precipitate protein. The mixture was centrifuged, and the supernatant was taken, and an equal volume of water was added thereto. Then the mixture was centrifuged and the supernatant was taken for injection. The blood drug concentration was quantitatively analyzed by LC-MS/MS analysis method, and pharmacokinetic parameters, such as peak concentration, clearance rate, half-life, area under the drug-time curve and bioavailability, were calculated.

With `CC(C)Oc1ccc(-c2nc(-c3cccc4c3CCC43CCN(C(=O)CN)C3)no2)cc1C#N` (stereo not shown) [Hydrochloride of compound 6], at S1PR1, the EC50 was 0.865 nM and the Emax was found to be 115%.

With `CC(C)Oc1ccc(-c2nc(-c3cccc4c3CCC43CCN(C(=O)[C@H](O)CO)C3)no2)cc1C#N` (stereo partly shown) [Hydrochloride of compound 44], at S1PR1, the EC50 came out at 0.72 nM and the Emax was 104%.

On to `CC(C)Oc1ccc(-c2cnc(-c3cccc4c3CCC43CCN(C(=O)CO)C3)cn2)cc1C#N` (stereo not shown) [Compound 19], for which, on S1PR1, a half-maximal response (EC50) required 3.25 nM and the Emax is 77.8%.

For `CC(C)Oc1ccc(-c2ncc(-c3cccc4c3CCC43CCN(C(=O)CO)C3)o2)cc1C#N` (stereo not shown) [Compound 21], at S1PR1, the EC50 stood at 21.7 nM and the Emax turned out to be 70.8%.

With `CC(C)Oc1ccc(-c2ncc(-c3cccc4c3CCC43CCN(CC4(C(=O)O)CC4)C3)cn2)cc1C#N` (stereo not shown) [Hydrochloride of compound 25], on S1PR1, a half-maximal response (EC50) required 11.5 nM and the Emax was 82.1%.

`CC(C)Nc1ncc(-c2nc(-c3cccc4c3CCC43CCN(C(=O)CO)C3)no2)cc1C#N` (stereo not shown) [Compound 13]: at S1PR1, the EC50 was 10.7 nM and the Emax turned out to be 77.8%.

For `CC(C)Oc1ccc(-c2nc(-c3cccc4c3CCC43CCN(C(=O)CC#N)C3)no2)cc1C#N` (stereo not shown) [Compound 4], on S1PR1, the EC50 amounted to 0.107 nM and the Emax came out at 99.4%.

On S1PR1, `CC(C)Oc1ccc(-c2nc(-c3cccc4c3CCC43CCN(CC4(C(=O)O)CCC4)C3)no2)cc1C#N` (stereo not shown) [Hydrochloride of compound 23] came in with an EC50 of 0.0353 nM and an Emax of 68.3%.

Consider `N#Cc1cc(-c2nc(-c3cccc4c3CCC43CCN(C(=O)CO)C3)no2)ccc1OC1CCCC1` (stereo not shown) [Compound 9], for which, on S1PR1, the concentration for a half-maximal effect (EC50) amounted to 2.15 nM and the Emax was 75.8%.

At S1PR1, `CC(C)Oc1ccc(-c2nc(-c3cccc4c3CCC43CCN(C(=O)CO)C3)no2)cc1C(F)F` (stereo not shown) [Compound 12] returned an EC50 of 0.477 nM and an Emax of 87.6%.

With `CC(C)Oc1ccc(-c2nsc(-c3cccc4c3CCC43CCN(C(=O)CO)C3)n2)cc1C#N` (stereo not shown) [Compound 16], on S1PR1, the EC50 came out at 14.4 nM and the Emax is 77.8%.

Consider `CC(C)Oc1ccc(-c2ncc(-c3cccc4c3CCC43CCN(C(=O)CO)C3)cn2)cc1C#N` (stereo not shown) [Compound 18], for which, on S1PR1, a half-maximal effect (EC50) was put at 4.06 nM and the Emax worked out at 84.2%.

Take `CC(C)Oc1ccc(-c2nc(-c3cccc4c3CCC43CCN(C(=O)CCC(=O)O)C3)no2)cc1C#N` (stereo not shown) [Compound 5]: on S1PR1, a half-maximal response (EC50) required 0.0688 nM and the Emax worked out at 85.1%.

At S1PR1, `CC(C)Oc1ccc(-c2nc(-c3cccc4c3CCC43CCN(C(=O)CO)C3)no2)cc1Cl` (stereo not shown) [Compound 11] registered an EC50 of 1.78 nM and an Emax of 84.6%.

`CC(C)Oc1ccc(-c2ncc(-c3cccc4c3CCC43CCN(C(=O)CO)C3)s2)cc1C#N` (stereo not shown) [Compound 14]: at S1PR1, the midpoint of the response, the EC50, lay at 1.59 nM and the Emax worked out at 82.2%.

As to `N#Cc1cc(-c2nc(-c3cccc4c3CCC43CCN(C(=O)CO)C3)no2)ccc1OC(F)F` (stereo not shown) [Compound 17], on S1PR1, the response was half-maximal at 8.59 nM (EC50) and the Emax was found to be 80.8%.

On S1PR1, `CC(C)Oc1ncc(-c2nc(-c3cccc4c3CCC43CCN(CC4(C(=O)O)CC4)C3)no2)cc1Cl` (stereo not shown) [Hydrochloride of compound 39] showed an EC50 of 3.46 nM and an Emax of 144%.

On to `CC(C)Oc1ccc(-c2nnc(-c3cccc4c3CCC43CCN(CC4(C(=O)O)CC4)C3)s2)cc1C#N` (stereo not shown) [Hydrochloride of compound 28], for which, at S1PR1, the EC50 is 1.32 nM and the Emax stood at 77.7%.

On S1PR1, `CC(C)Oc1ccc(-c2nnc(-c3cccc4c3CCC43CCN(C(=O)CO)C3)s2)cc1C#N` (stereo not shown) [Compound 15] registered an EC50 of 2.2 nM and an Emax of 98.9%.

At S1PR1, `CC(C)Oc1ccc(-c2ncc(-c3cccc4c3CCC43CCN(CC4(C(=O)O)CC4)C3)s2)cc1C#N` (stereo not shown) [Hydrochloride of compound 26] returned an EC50 of 4.47 nM and an Emax of 73.8%.

Regarding `CC(C)Oc1ccc(-c2nc(-c3cccc4c3CCC43CCN(CC4(C(=O)O)CC4)C3)ns2)cc1C#N` (stereo not shown) [Hydrochloride of compound 24], at S1PR1, it took 4.99 nM to reach a half-maximal effect (EC50) and the Emax was found to be 87.1%.

At S1PR1, `COc1cc(-c2nc(-c3cccc4c3CCC43CCN(CC4(C(=O)O)CC4)C3)no2)cc(C2CCCC2)n1` (stereo not shown) [Compound 40] registered an EC50 of 2.82 nM and an Emax of 102%. In data set [1], the Cmax amounted to 357 ng/mL, the bioavailability was 63.9%, the clearance was determined as 5.47 mL/min/kg and the Vd came to 5.99 L/kg. Also, in data set [1], the AUC(0-t) came out at 7.14 µM·h and the half-life was 8.83 h.

Regarding `CC(C)Oc1ccc(-c2nc(-c3cccc4c3CCC43CCN(C(=O)CS(C)(=O)=O)C3)no2)cc1C#N` (stereo not shown) [Compound 7], on S1PR1, the EC50 turned out to be 0.123 nM and the Emax was determined as 90.7%.

Consider `CC(C)Oc1ccc(-c2nc(-c3cccc4c3CCC43CCN(C(=O)[C@@H](O)CO)C3)no2)cc1C#N` (stereo partly shown) [Compound 45], for which, on S1PR1, a half-maximal effect (EC50) was put at 0.29 nM and the Emax came to 126%. In data set [1], the Cmax came out at 1180 ng/mL, the bioavailability stood at 59.2%, the clearance was determined as 1.59 mL/min/kg and the Vd was found to be 1.94 L/kg. In data set [1], the AUC(0-t) came to 22.9 µM·h and the half-life was 13.2 h.

Consider `O=C(O)C1(CN2CCC3(CCc4c(-c5noc(-c6ccc(C7CCCC7)c(C(F)(F)F)c6)n5)cccc43)C2)CC1` (stereo not shown) [Hydrochloride of compound 38], for which, on S1PR1, the EC50 stood at 0.041 nM and the Emax came to 100%.

In the case of `CC(C)Oc1ccc(-c2nc(-c3cccc4c3CCC43CCN(CC4(C(=O)O)CC4)C3)no2)cc1C(F)(F)F` (stereo not shown) [Hydrochloride of compound 43], at S1PR1, the EC50 amounted to 0.1 nM and the Emax was 108%.

In the case of `CC(C)Oc1ccc(-c2nc(-c3cccc4c3CCC43CCN(C(=O)CO)C3)no2)cc1Br` (stereo not shown) [Compound 10], at S1PR1, the EC50 worked out at 1.31 nM and the Emax is 101%.

On to `CC(C)Cc1ccc(-c2nc(-c3cccc4c3CCC43CCN(CC4(C(=O)O)CC4)C3)no2)cc1` (stereo not shown) [Hydrochloride of compound 46], for which, at S1PR1, the EC50 amounted to 5.76 nM and the Emax came out at 105%.

As for `COCC(=O)N1CCC2(CCc3c(-c4noc(-c5ccc(OC(C)C)c(C#N)c5)n4)cccc32)C1` (stereo not shown) [Compound 3], on S1PR1, the EC50 was 0.129 nM and the Emax amounted to 88.6%.

As to `CC(C)Oc1ccc(-c2ncc(-c3cccc4c3CCC43CCN(CC4(C(=O)O)CC4)C3)o2)cc1C#N` (stereo not shown) [Hydrochloride of compound 27], on S1PR1, the EC50 was 9.78 nM and the Emax worked out at 63.4%.

At S1PR1, `CC(C)Oc1ccc(-c2nc(-c3cccc4c3CCC43CCN(C(=O)CO)C3)ns2)cc1C#N` (stereo not shown) [Compound 20] registered an EC50 of 9.39 nM and an Emax of 90.4%.

As to `O=C(O)C1(CN2CCC3(CCc4c(-c5noc(-c6ccc(C7CCCCC7)c(C(F)(F)F)c6)n5)cccc43)C2)CC1` (stereo not shown) [Hydrochloride of compound 37], on S1PR1, the EC50 was 0.047 nM and the Emax amounted to 94.1%.
